Measurements taken from article PMC3799874 (Bioorganic & medicinal chemistry letters, 2012).
Marks after values point to notes of the source that are not given here.

What was measured:
[1] = target: T1, rat TRPV1 heterologously expressed in Chinese hamster ovary (CHO) cells (Rattus norvegicus, UniProt O35433); type: binding
[2] = target: T1, rat TRPV1 heterologously expressed in Chinese hamster ovary (CHO) cells; type: cell-based

T1 sequence (O35433 whole entry): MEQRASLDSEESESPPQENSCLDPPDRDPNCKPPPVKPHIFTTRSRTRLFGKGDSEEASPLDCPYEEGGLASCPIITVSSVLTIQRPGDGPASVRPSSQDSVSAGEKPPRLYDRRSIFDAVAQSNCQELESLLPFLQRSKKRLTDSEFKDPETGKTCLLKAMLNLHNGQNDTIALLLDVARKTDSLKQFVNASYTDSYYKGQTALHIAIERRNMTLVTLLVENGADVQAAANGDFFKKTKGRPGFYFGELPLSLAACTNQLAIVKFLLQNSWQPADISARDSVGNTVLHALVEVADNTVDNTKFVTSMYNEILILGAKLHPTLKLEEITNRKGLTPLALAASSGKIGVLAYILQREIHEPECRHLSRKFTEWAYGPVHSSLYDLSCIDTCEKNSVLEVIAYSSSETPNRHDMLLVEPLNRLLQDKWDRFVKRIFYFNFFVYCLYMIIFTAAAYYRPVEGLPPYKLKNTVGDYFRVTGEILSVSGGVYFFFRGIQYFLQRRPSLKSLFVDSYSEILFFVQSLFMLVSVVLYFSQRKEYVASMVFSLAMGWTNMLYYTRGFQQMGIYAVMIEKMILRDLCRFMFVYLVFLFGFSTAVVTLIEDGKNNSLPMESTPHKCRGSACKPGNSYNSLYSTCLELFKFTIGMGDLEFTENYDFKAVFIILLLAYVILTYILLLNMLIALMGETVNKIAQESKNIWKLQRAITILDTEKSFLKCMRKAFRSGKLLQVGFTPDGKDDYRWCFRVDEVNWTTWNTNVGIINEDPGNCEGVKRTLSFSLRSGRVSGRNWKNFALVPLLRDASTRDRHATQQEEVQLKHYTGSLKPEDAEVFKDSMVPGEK

`COc1cc(C(C)C(=O)NCc2ccc(C(C)(C)C)cc2)ccc1O` (stereo not shown) [8a] was tested, and the “enhancement in binding affinity compared to non-methylated parent” value [1] was 2 fold and the “enhancement in agonism compared to non-methylated parent” value [2] was 3 fold.

`CC(C(=O)NCc1ccc(C(C)(C)C)cc1)c1ccc(O)c(F)c1` (stereo not shown) [8b] was tested, and the “enhancement in binding affinity compared to non-methylated parent” value [1] was “ca. 4.5 fold”.

For `CC(C(=O)NCc1ccc(C(C)(C)C)cc1)c1ccc(O)c(Cl)c1` (stereo not shown) [8c], the “enhancement in binding affinity compared to non-methylated parent” value [1] was about 4 fold and the “fractional calcium uptake compared with that induced by 300 nM capsaicin” value [2] was “(77%) ^a”.

For `CC(C)(C)c1ccc(CNC(=O)Cc2ccc(OCCN)c(F)c2)cc1` [10b], the “fractional calcium uptake compared with that induced by 300 nM capsaicin” value [2] was “(63%) ^a”.

In the case of `CC(C)(C)c1ccc(CNC(=O)Cc2ccc(OCCN)c(Cl)c2)cc1` [10c], the “fractional calcium uptake compared with that induced by 300 nM capsaicin” value [2] was “(36%) ^a”.

In the case of `CC(C(=O)NCc1ccc(C(C)(C)C)cc1)c1ccc(OCCN)c(F)c1` (stereo not shown) [14b], the “fractional calcium uptake compared with that induced by 300 nM capsaicin” value [2] was “(91%) ^a”.

For `CC(C(=O)NCc1ccc(C(C)(C)C)cc1)c1ccc(OCCN)c(Cl)c1` (stereo not shown) [14c], the “fractional calcium uptake compared with that induced by 300 nM capsaicin” value [2] was “(75%) ^a”.

For `CCCCCCCCCNC(=O)C(C)c1ccc(O)c(OC)c1` (stereo not shown) [compound 19], the “enhancement in binding affinity compared to non-methylated parent” value [1] was 1.5–2 fold and the “enhancement in agonism compared to non-methylated parent” value [2] was 1.5–2 fold.

With `COc1cc(C(C)C(=O)NCCCc2ccc(C)c(C)c2)ccc1O` (stereo not shown) [compound 20] the “enhancement in binding affinity compared to non-methylated parent” value [1] was 1.5–2 fold and the “enhancement in agonism compared to non-methylated parent” value [2] was 1.5–2 fold.

For `COc1cc(C(C)C(=O)NCCCc2ccc(C)c(C)c2)ccc1OCCN` (stereo not shown) [compound 22], the “increase in receptor activity compared to DA-5018” value [1] was “ca. 2 fold”.

For `COc1cc(C(C)NC(=S)NCc2ccc(C(C)(C)C)cc2)ccc1O` (stereo not shown) [compound 32], the “reduction (loss) in binding affinity compared to non-methylated parent” value [1] was 3 fold.

For `COc1cc(C(C)NC(=S)NCc2ccc(C(C)(C)C)cc2)ccc1OCCN` (stereo not shown) [compound 36], the “reduction (loss) in binding affinity compared to non-methylated parent” value [1] was 17 fold.
